{"source": "paper PMC7803991", "about": "“Prediction of pharmacological activities from chemical structures with graph convolutional neural networks” (Scientific Reports, 2021)", "molecular_target": "T1, serotonin transporter (SERT) (Homo sapiens, UniProt P31645)", "T1 construct": "gene SLC6A4", "T1 sequence (P31645 whole entry)": "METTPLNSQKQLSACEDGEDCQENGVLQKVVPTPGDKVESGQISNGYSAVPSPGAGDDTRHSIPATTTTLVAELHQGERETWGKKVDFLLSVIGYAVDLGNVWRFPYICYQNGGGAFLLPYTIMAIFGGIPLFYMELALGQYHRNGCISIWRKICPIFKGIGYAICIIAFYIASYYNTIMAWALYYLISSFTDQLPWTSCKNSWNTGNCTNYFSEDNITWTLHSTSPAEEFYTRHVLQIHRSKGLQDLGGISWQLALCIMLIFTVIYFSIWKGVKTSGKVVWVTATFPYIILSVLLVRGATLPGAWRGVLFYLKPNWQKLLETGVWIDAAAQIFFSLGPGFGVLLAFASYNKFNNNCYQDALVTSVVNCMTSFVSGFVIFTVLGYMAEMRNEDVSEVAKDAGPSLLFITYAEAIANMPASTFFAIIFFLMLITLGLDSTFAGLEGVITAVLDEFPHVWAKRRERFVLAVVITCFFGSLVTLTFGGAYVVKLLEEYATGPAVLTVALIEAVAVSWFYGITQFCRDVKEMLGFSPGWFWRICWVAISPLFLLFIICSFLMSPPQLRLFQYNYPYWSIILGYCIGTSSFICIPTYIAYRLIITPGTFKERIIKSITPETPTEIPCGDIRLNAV", "assay": "cell-based", "note": "Where a name gives a salt, the structure may show the parent alone."}
{"compound": "Clc1ccc2sc(C3CCNCC3)nc2c1", "note": "[compound 1, 5-chloro-2-(piperidin-4-yl)-1,3-benzothiazole hydrochloride]", "values": [{"measurement": "IC50", "value": 6.24, "unit": "nM"}]}
